Details of data set [1]: method as in PMID 34497422. The following applies: in vitro liver microsome assays; cited from earlier work. In general terms: Microsomes from liver hold many membrane-bound enzymes, among them those of drug oxidation.
On the set-up of data set [2]: method as in PMID 34497422. As to conditions: rat model; cited from earlier work.
Data set [3] deals with T1, A1R (A1R-FlpInCHO cells) (Homo sapiens, UniProt P30542).
T1 sequence (P30542 1-326): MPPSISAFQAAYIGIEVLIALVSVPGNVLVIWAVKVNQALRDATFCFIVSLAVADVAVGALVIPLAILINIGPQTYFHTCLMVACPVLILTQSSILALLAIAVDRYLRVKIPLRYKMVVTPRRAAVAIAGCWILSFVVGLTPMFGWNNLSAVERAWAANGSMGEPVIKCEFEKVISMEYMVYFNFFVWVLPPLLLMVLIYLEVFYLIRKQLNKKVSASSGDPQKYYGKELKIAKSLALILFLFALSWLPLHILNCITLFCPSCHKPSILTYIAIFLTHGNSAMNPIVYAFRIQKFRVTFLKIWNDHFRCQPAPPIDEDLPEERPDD
Nature of the data set: NECA/allosteric ligand interaction in cAMP accumulation, operational model of allosterism. The class given is cell-based. The procedure: (§1) FlpInCHO cell lines and cortical neuron cells were seeded into transparent 96-well plates at 20,000 cells/well and incubated for 16 to 20 h in a humidified incubator at 37 °C in 5% CO2. […] Compounds were added at either a single concentration (10 or 30 μM) or a concentration range for full interaction studies (3 to 30 μM), and plates were incubated for 30 to 60 min at 37 °C in a humidified chamber. […] After 30 min incubation at 37 °C, the reaction was terminated by rapid removal of buffer and the addition of 50 μL/well cold ethanol. […] Agonist concentration–response curves were normalized to the response mediated by 3 µM forskolin […].
[5] E=EmτAAKB+αβ[B]+τB[B]KA^n/AKB+KAKB+[B]KA+α[A][B]^n+τAAKB+αβ[B]+τB[B]KA^n
Orthosteric agonist and allosteric ligand affinity were constrained to values determined from radioligand binding.
In general terms: Cyclic AMP is a second messenger, typically raised through Gs and lowered through Gi signalling.

Data set [4] concerns the target T2, A1R allosteric site (A1R-FlpINCHO cells, wild type) (Homo sapiens, UniProt P30542).
T2 sequence (P30542 1-326): T1 sequence (P30542 1-326)
Nature of the data set: Whole-cell [3H]DPCPX interaction binding with NECA, allosteric ternary complex model.
Method: [^3H]DPCPX (8-cyclopentyl-1,3-dipropylxanthine, [dipropyl-2,3-^3H(N)]) whole-cell binding assays were performed on FlpINCHO cells stably expressing either WT (nontagged or 3xHA-tagged) or mutant 3xHA-A1R. Cells were seeded into a transparent 96-well plate at 40,000 cells/well in DMEM containing 10% FBS. Following 8 h incubation in a humidified environment at 37 °C in 5% CO2, cells were washed and maintained in serum-free DMEM for approximately 18 h at 37 °C in 5% CO2. […] Assays were terminated by washing twice with 100 μL/well cold phosphate-buffered saline, followed by the addition of 100 μL OptiPhase Supermix™ scintillation cocktail and bound radioactivity measured using a MicroBeta^2 ™ plate counter (PerkinElmer).
Equilibrium binding interaction experiments were fitted to the following allosteric ternary complex model.[3] Y=BmaxA/A+KAKB/αAB+KB1+[I]/KI+[B]/KB+αII[B]/KIKB,
A cooperativity factor α > 1 describes positive cooperativity; a value 0 < α < 1 describes negative cooperativity, and a value of α = 1 describes neutral cooperativity.

The next data set addresses T3, A1R S246^6.47A mutant (Homo sapiens, UniProt P30542, S246A).
T3 construct: expressed in transfected cells; host or cells: FlpInCHO cells, stably transfected
T3 sequence (P30542 1-326 S246A): T1 sequence (P30542 1-326) with S246A
Details: method as in PMID 34497422. As to conditions: cited from earlier work.

In another data set the target is T4, A1R G279^7.44A mutant (Homo sapiens, UniProt P30542, G279A).
T4 construct: expressed in transfected cells; host or cells: FlpInCHO cells, stably transfected
T4 sequence (P30542 1-326 G279A): T1 sequence (P30542 1-326) with G279A
Details: method as in PMID 34497422. The following applies: cited from earlier work.

The target of data set [5] is T1, A1R (A1R-FlpInCHO cells). Description: Inhibition of forskolin-stimulated cAMP accumulation: NECA potency ± compound and compound alone. The class given is cell-based. The procedure: as §1
Response=Basal+Emax-Basal×A/EC50+A,

Residue numbers refer to the chain shown, from its start.

`Nc1scc(-c2cc(C(F)(F)F)cc(C(F)(F)F)c2)c1C(=O)c1ccc(Cl)cc1` [compound 1, reference compound]: in data set [1], the “metabolism in liver microsomes” value is given as “rapid metabolism”. Moreover, the “in vivo analgesic efficacy” value in data set [2] is “in vivo analgesic efficacy”. Besides, at A1R (A1R-FlpInCHO cells) [3] (allosteric agonism in cAMP), the “allosteric ligand efficacy (logτB)” value is 0.56 ± 0.06. For the same compound, the “functional cooperativity with NECA (logαβ)” value on A1R (A1R-FlpInCHO cells) [3] (cAMP) stood at 0.78 ± 0.15. The “allosteric ligand affinity (pKB)” value in data set [4] (allosteric ternary complex model, n = 4) came to 5.18 ± 0.21. Besides, the “binding cooperativity with NECA (logα)” value in data set [4] (allosteric ternary complex model, orthosteric agonist NECA) is listed as 2.09 ± 0.22. Further, in data set [4] (approximate, from logα), the “positive cooperativity between PAM and NECA” value was “approximately 100 fold”. Also, the Kd in data set [4] (approximate, from pKB, read-out: affinity for the A1R allosteric site) was roughly 8 µM. In addition, the “effect of binding site mutation on affinity” value at A1R S246^6.47A mutant and at A1R G279^7.44A mutant was “small (four- to seven-fold) but significant reduction” throughout. At A1R (A1R-FlpInCHO cells) [5] (30 μM compound in the absence of NECA, for NECA: maximal response), the “inhibition of 3 μM forskolin-stimulated cAMP accumulation” value is reported as 83%. Also, at A1R (A1R-FlpInCHO cells) [5] (30 μM, absence of NECA), the “functional response relative to NECA maximal response” value was “approximately 80%”.

The record behind these values is article PMC12280925, “Structure-based discovery of positive allosteric modulators of the A1 adenosine receptor” (Proceedings of the National Academy of Sciences of the …, 2025).
